Reference: ChEMBL document CHEMBL1201862, “PubChem BioAssay data set” (2004)
Activity calls are given as the source filed them.

Key:
Galanin receptor type 3 = Galanin receptor type 3 (Homo sapiens, UniProt O60755); assay: Fluorescence-based cell-based primary high throughput dose response assay to identify antagonists of the Galanin Receptor 3 (GalR3).; type: functional
cells = type: functional, cell-based; details: HEK-CNG
[1] = biological target: T1, Probable nicotinate-nucleotide adenylyltransferase (Staphylococcus aureus (strain N315), UniProt P65502); type: functional, Staphylococcus aureus subsp. aureus N315;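 as to IC50 Mean: confirmatory dose-response retesting of NadD inhibitor hits first found in an ultra-high-throughput screen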
[2] = biological target: T1, Probable nicotinate-nucleotide adenylyltransferase; type: functional, Staphylococcus aureus subsp. aureus N315; details: read-out: IC50_Mean
Vero = assay: cells; type: functional; details: Chlorocebus sabaeus
[3] = biological target: T2, Small ubiquitin-related modifier 1 (Homo sapiens, UniProt P63165); assay: SUMO1 protein interaction blockers, potency – biochemical, fluorescence polarization, uHTS hits, dose response (AID 624382); type: functional; details: read-out: IC50_Mean
[4] = biological target: T2, Small ubiquitin-related modifier 1; assay: SUMO1 protein-protein binding blockers, potency – biochemical, FRET, dose response (AID 624383); type: functional; details: read-out: IC50_Mean
[5] = biological target: T3, Low molecular weight phosphotyrosine protein phosphatase (Homo sapiens, UniProt P24666); type: functional; details: read-out: IC50_Mean
T3 sequence (P24666 whole entry): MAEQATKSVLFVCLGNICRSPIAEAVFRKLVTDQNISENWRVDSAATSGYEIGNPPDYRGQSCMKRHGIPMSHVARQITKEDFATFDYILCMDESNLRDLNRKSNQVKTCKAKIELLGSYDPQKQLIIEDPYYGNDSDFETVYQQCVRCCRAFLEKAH

[6] = biological target: T4, Sentrin-specific protease 8 (Homo sapiens, UniProt Q96LD8); type: functional
T4 sequence (Q96LD8 whole entry): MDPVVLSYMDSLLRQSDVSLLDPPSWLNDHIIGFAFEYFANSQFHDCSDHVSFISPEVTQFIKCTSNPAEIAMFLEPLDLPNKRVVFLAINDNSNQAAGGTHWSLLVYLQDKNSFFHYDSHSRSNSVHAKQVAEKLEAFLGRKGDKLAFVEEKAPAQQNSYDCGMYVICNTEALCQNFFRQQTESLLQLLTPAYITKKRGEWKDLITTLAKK

[7] = biological target: T4, Sentrin-specific protease 8; type: functional; remark: listed apart in the source
[8] = biological target: T5, Replicative DNA helicase DnaB (Mycobacterium tuberculosis, UniProt P9WMR3); assay: DnaB intein splicing inhibitors, dose response, biochemical, cell-free fluorescence (AID 449749); type: functional
T5 sequence (P9WMR3 whole entry): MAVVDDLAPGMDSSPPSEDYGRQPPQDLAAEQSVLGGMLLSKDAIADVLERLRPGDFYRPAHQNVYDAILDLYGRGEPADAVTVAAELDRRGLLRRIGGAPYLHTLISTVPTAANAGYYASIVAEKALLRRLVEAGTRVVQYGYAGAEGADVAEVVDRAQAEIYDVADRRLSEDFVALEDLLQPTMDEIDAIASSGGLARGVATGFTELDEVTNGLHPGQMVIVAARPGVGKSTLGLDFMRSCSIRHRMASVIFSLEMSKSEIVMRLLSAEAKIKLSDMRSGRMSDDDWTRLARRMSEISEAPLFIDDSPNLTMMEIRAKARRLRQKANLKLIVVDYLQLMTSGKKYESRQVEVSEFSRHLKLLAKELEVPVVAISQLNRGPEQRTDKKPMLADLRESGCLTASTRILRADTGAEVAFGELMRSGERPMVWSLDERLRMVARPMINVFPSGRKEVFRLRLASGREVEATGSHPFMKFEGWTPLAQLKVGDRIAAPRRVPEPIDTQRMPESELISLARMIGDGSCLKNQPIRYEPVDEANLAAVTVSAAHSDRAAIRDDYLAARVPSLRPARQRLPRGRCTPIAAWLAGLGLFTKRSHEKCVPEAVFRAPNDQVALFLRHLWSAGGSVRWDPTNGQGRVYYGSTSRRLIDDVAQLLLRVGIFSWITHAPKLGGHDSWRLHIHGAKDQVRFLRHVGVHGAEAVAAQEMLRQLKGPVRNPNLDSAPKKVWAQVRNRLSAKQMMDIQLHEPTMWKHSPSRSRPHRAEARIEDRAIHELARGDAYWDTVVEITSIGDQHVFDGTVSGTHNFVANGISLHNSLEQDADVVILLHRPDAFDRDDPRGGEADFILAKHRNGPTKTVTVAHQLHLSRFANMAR

Protein RecA = biological target: T6, Protein RecA (Mycobacterium tuberculosis, UniProt P9WHJ3); assay: Fluorescence Cell-Free Homogeneous Dose Retest to Identify Inhibitors of RecA-Intein Splicing Activity. [Related pubchem assays (depositor defined):AID2097, AID2223, AID489010, AID492950]; type: functional
T6 sequence (P9WHJ3 whole entry): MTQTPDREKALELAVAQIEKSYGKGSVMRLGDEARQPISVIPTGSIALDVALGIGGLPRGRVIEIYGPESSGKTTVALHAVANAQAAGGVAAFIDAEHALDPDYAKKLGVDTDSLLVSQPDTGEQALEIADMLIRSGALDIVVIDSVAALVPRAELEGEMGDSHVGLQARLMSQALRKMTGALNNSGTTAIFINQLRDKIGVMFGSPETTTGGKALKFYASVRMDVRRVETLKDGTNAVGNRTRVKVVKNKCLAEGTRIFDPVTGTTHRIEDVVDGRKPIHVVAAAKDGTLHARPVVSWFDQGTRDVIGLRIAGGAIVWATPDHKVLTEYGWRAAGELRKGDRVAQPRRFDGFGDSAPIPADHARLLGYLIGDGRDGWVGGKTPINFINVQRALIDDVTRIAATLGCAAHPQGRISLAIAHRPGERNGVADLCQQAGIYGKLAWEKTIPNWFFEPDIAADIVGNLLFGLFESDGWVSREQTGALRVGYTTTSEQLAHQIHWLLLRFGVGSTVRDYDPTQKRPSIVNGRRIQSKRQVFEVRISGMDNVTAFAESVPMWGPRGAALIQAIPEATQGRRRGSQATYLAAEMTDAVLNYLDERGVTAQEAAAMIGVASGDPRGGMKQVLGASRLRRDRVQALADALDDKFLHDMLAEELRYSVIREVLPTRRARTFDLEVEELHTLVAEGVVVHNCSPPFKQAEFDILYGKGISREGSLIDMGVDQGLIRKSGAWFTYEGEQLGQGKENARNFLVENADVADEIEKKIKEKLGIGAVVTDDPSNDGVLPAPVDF

Cytochrome P450 2C9 = Cytochrome P450 2C9 (Homo sapiens, UniProt P11712)
Cytochrome P450 3A4 = Cytochrome P450 3A4 (Homo sapiens, UniProt P08684);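 also: CYP3A4 tested as one member of a cytochrome P450 panel screen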
[9] = biological target: T7, Corticotropin-releasing factor receptor 2/Corticotropin-releasing factor-binding protein (Homo sapiens, UniProt P24387+Q13324); assay: activators of CRF receptor 2 with binding protein – uHTS hits, confirmation (AID 602473); type: functional; details: read-out: EC50_Mean
T7 sequence (Q13324 whole entry): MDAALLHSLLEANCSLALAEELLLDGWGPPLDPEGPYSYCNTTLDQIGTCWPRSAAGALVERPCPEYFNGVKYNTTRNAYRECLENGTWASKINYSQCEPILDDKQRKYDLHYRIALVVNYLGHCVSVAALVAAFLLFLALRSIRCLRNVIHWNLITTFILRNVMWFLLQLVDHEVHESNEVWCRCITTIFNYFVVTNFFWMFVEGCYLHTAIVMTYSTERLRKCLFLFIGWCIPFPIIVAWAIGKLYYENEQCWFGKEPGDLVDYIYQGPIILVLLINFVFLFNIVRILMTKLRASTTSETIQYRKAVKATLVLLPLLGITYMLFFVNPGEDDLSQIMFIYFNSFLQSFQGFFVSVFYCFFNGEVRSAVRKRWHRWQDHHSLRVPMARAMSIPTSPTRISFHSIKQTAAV
T7 sequence (P24387 whole entry): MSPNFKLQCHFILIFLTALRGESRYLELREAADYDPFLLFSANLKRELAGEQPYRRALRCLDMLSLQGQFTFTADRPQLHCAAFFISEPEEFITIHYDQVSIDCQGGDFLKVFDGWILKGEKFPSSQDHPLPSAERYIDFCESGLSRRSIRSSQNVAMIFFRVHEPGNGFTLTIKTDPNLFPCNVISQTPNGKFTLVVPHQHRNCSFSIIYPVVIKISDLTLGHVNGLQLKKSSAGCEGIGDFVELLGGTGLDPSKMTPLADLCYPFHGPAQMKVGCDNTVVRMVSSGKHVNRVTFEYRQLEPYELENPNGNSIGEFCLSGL

[10] = biological target: T7, Corticotropin-releasing factor receptor 2/Corticotropin-releasing factor-binding protein; assay: Dose Response confirmation of uHTS hits for small molecule antagonists of the CRF-binding protein and CRF-R2 receptor complex.; type: functional; details: read-out: IC50_Mean
Cytochrome P450 1A2 = biological target: T8, Cytochrome P450 1A2 (Homo sapiens, UniProt P05177);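 also: PubChem cytochrome P450 panel assay, CYP1A2 panel member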
T8 sequence (P05177 whole entry): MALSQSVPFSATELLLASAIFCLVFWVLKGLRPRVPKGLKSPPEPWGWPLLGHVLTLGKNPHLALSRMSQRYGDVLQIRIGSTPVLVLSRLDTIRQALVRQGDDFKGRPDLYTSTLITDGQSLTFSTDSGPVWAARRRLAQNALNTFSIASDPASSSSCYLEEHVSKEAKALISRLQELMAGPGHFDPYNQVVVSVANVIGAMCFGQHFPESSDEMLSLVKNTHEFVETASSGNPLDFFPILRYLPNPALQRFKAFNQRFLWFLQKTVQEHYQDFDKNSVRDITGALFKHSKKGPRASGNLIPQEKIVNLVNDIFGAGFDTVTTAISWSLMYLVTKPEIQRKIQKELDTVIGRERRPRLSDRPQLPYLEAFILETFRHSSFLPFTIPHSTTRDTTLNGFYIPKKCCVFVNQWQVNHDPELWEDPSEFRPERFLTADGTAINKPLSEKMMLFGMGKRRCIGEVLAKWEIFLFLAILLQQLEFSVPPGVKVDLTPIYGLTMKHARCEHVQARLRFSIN

[11] = blockers of CRF-binding protein–CRF-R2 complex – cell-based, uHTS hits, 384-well, dose response (AID 651639); type: functional, Homo sapiens; details: read-out: IC50_Mean
Prothrombin = Prothrombin (Bos taurus, UniProt P00735); assay: thrombin protease inhibitors – biochemical, fluorescence polarization, uHTS hits, dose response (AID 602369); type: functional
[12] = biological target: T3, Low molecular weight phosphotyrosine protein phosphatase; type: functional; details: read-out: IC50_Mean; remark: listed apart in the source
[13] = biological target: 26S proteasome non-ATPase regulatory subunit 14 (Homo sapiens, UniProt O00487); assay: inhibition of proteasome subunit RPN11 – biochemical, fluorescence polarization, uHTS hits, confirmation (AID 602368); type: functional
[14] = biological target: 72 kDa type IV collagenase (Homo sapiens, UniProt P08253); assay: Dose Response validation of uHTS RPN11 inhibitor hits using a MMP-2 Fluorescence assay.; type: functional
[15] = biological target: T9, Carboxy-terminal domain RNA polymerase II polypeptide A small phosphatase 1 (Homo sapiens, UniProt Q9GZU7); assay: CTDSP1 inhibitors, concentration-response, biochemical, absorbance readout, ultra-high-throughput screen actives (AID 540297); type: functional
T9 sequence (Q9GZU7 whole entry): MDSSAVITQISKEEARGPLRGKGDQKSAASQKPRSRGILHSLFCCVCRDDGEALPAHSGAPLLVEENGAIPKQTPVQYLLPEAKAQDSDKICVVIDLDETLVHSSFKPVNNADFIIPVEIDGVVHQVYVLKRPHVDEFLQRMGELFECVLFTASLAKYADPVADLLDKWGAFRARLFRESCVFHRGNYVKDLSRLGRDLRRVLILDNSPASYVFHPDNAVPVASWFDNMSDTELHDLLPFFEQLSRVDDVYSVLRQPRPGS

Chain of Galanin receptor type 3 (O60755 whole entry): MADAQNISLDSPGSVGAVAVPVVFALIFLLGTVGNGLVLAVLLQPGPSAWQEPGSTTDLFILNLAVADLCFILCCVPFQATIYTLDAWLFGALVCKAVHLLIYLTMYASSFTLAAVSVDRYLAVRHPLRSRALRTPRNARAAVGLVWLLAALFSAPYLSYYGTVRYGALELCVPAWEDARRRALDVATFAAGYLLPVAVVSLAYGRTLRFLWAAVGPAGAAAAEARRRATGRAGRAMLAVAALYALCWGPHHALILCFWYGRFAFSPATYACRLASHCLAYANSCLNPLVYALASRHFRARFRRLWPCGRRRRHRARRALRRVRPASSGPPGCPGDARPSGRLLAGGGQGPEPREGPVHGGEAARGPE
T1 sequence (P65502 whole entry): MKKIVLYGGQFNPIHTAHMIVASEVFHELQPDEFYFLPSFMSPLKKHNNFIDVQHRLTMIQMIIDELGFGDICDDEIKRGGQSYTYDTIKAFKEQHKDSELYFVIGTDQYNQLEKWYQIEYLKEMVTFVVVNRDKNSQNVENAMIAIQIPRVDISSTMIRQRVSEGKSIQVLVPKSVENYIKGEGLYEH
T2 sequence (P63165 whole entry): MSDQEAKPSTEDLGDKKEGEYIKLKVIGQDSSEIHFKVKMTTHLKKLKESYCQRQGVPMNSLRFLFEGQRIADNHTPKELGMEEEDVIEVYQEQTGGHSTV
Chain of 72 kDa type IV collagenase (P08253 whole entry, the tested form may be a part): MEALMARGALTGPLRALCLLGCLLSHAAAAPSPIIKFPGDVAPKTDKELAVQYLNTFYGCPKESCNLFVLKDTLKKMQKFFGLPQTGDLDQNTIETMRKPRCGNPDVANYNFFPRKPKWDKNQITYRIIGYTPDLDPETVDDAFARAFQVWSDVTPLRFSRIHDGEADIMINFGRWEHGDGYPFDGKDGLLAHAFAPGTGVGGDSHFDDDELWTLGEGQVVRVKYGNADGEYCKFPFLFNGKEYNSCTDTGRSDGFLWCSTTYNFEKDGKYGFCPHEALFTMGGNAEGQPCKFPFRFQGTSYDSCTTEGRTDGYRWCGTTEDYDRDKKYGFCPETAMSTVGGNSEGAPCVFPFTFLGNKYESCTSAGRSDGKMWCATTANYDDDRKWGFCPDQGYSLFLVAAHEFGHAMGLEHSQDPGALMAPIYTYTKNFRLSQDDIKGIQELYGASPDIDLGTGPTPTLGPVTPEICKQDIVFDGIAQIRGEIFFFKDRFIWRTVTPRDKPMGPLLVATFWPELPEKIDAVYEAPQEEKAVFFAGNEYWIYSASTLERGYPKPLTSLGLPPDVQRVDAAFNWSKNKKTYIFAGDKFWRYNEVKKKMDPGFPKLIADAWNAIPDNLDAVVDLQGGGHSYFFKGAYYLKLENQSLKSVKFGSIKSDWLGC
Chain of 26S proteasome non-ATPase regulatory subunit 14 (O00487 whole entry): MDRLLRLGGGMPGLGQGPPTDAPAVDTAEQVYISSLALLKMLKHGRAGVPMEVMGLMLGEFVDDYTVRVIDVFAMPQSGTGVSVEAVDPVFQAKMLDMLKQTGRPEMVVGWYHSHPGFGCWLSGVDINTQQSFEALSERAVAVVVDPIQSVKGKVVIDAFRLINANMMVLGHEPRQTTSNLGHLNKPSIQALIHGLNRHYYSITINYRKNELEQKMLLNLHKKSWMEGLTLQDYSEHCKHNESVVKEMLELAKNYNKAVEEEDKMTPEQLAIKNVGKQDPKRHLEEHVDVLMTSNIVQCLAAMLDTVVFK
Chain of Cytochrome P450 2C9 (P11712 whole entry): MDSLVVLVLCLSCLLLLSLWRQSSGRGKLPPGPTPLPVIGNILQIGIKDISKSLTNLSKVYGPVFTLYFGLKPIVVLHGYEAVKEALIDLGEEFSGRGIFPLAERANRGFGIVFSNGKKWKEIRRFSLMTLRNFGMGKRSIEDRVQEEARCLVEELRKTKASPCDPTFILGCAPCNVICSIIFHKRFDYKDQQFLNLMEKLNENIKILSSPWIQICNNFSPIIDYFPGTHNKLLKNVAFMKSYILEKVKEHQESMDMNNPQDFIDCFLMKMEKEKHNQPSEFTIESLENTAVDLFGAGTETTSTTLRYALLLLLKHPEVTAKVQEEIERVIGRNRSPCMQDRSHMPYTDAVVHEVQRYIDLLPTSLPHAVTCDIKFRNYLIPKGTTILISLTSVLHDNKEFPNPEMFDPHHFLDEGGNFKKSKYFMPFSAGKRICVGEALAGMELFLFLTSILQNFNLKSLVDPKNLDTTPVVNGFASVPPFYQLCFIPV
Chain of Cytochrome P450 3A4 (P08684 whole entry): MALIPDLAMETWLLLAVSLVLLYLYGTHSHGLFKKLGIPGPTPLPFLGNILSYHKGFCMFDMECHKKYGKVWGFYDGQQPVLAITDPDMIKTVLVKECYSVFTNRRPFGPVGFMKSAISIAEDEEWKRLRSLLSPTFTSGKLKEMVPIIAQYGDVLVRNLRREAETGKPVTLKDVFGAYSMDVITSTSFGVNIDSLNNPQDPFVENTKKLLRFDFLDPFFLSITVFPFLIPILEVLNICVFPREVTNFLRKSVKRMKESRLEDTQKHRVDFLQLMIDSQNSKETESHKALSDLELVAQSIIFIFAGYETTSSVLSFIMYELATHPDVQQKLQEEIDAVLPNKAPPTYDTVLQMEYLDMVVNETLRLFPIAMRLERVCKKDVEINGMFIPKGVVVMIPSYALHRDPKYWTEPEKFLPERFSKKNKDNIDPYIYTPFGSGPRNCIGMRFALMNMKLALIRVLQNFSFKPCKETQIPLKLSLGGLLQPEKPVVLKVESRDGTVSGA

In the case of `Cc1cc(C(=O)CSc2nc(N)cc(O)n2)c(C)n1-c1ccc(OC(F)F)cc1`, the IC50 (Galanin receptor type 3) is reported as 2.9 µM (active) and the EC50 (cells) is reported as > 29.9 µM (inactive).
For `COc1ccccc1-n1c(SCc2cc(=O)oc3cc(O)ccc23)nc2ccccc2c1=O`, the IC50 [1] was 15.2 µM (active) and the IC50 [2] was 40.2 µM (active).
In the case of `O=C(Nc1ccc2oc(=O)ccc2c1)c1ccc(-c2cccc([N+](=O)[O-])c2)o1`, the CC50 (Vero) is reported as 8.41 µM (active), the IC50 [3] is reported as > 66.6 µM (inactive) and the IC50 [4] is reported as 2.43 µM (active). The IC50 [5] was 25.5 µM (inactive).
In the case of `CCN(CC)c1ccc(NC2CC(=O)N(CCc3ccc(OC)cc3)C2=O)cc1` (stereo not drawn), the IC50 [6] is reported as > 100 µM (inactive) and the IC50 [7] is reported as 45.2 µM (active).
In the case of `CC1=NN(c2ccc(S(=O)(=O)O)cc2C)C(=O)C1`, the AC50 [8] is reported as 3.99 µM (active), the EC50 (Protein RecA) is reported as 4.57 µM (active) and the IC50 [6] is reported as 28 µM (active). The IC50 [7] was 21.8 µM (active).
With `CCOc1cc(C)ccc1OCc1nnc(SCC(=O)c2cccc([N+](=O)[O-])c2)n1C` the AC50 (Cytochrome P450 2C9) was “inconclusive”, the AC50 (Cytochrome P450 3A4) was 1.41 µM (inconclusive) and the EC50 [9] was > 53 µM (inactive). For the same compound, the IC50 [10] was 2.52 µM (active), the AC50 (Cytochrome P450 1A2) was 15.8 µM (inconclusive) and the IC50 [11] was 2.11 µM (active).
For `CC(=O)OCC[N+](C)(C)C.[O-][Cl+3]([O-])([O-])[O-]`, the IC50 (Galanin receptor type 3) was 0.618 µM (active) and the EC50 (cells) was > 29.9 µM (inactive).
For `O=c1c(Cl)c(N/N=C/c2ccc(Br)cc2)cnn1-c1ccccc1`, the IC50 (Prothrombin) was > 100 µM (inactive), the IC50 [12] was > 80 µM (inactive) and the IC50 [5] was 21.6 µM (inactive). The IC50 [13] was 21.2 µM (active), the IC50 [14] was > 100 µM (inactive) and the IC50 [15] was > 80 µM (inactive).
